Source: US20220313702A1, “OXATHIAZIN COMPOUNDS FOR INHIBITING GAPDH” (Geistlich Pharma AG, priority 2019, published 2022)
Read-outs that look alike come from different tables or passages of the source. Blank lines part the entries; values can stand above or below the compound they belong to.

How the values were obtained:
[1] = target: recombinant GAPDH (rGAPDH) (Homo sapiens, UniProt P04406); assay: Glyceraldehyde-3-phosphate Dehydrogenase Activity Assay Kit with recombinant GAPDH; type: biochemical
Description: FIG. 1: Inhibition of GAPDH enzyme activity: Effect of treatment with GP-2250 (100 uM and 250 uM) on the activity of recombinant GAPDH (rGAPDH) was tested with the Glyceraldehyde-3-phosphate Dehydrogenase Activity Assay Kit (Abcam ab204732) following incubation for up to 60 min at 37° C. The rGAPDH activity is inhibited dose- and time-dependently by 100 uM and 250 uM GP-2250 up to 40% compared to the untreated control. […] The GP-2250 curves are the measured data, not normalized to controls. Data are presented as mean+/−S.D.
The incubation time may be critical as it is a cell-free assay. Specific doses required for a half-maximal or full inhibition of GAPDH are tested in vitro and in vivo in rodents. These in vitro and in vivo data provide a target-related measure of the dose required to inhibit the GAPDH in tissue, e.g., cancer tissue, to various degrees, which is a more direct measure of the impact of the compounds of the present disclosure in contrast to cellular assays such as induction of apoptosis or ROS production.
GAPDH is the rate limiting glycolytic enzyme in cells operating under conditions of aerobic glycolysis, such as tumor cells. Partial inhibition is therefore expected to impair the energy metabolism of tumor cells. This is in contrast to normal cells. […] The GP-2250 curves are the measured data, not normalized to controls. […]

[2] = test system: PancTul pancreatic cancer cell line; assay: fluorescent ROS detection assay, PancTul; type: cell-based
Description: (§1) FIG. 2: Formation of ROS: The effect of treatment with the indicated concentrations of GP-2250 on the formation of ROS was tested in two pancreatic cancer cell lines a) PancTul and b) BxPC3, using a fluorescent ROS detection assay (ROS/Superoxide Detection Assay Kit, Abcam (ab139476)) following incubation with GP-2250 for 90 min at 37° C. Negative controls (NC+NAC) contained the ROS inhibitor which is part of the Assay Kit plus N-acetylcysteine (NAC; 5 mM). Untreated control (U). Data are presented as mean+/−S.D. Significance levels calculated in comparison to untreated controls (U). * p<0.05, ** p<0.01, *** p<0.001.
(§2) The effects of treatment with various concentrations of GP-2250 on the formation of ROS was tested in two pancreatic cancer cell lines a) PancTul and b) BxPC3 as shown in FIG. 2. […] The BxPC3 cell line was more sensitive to forming ROS than Panc Tul. The rather high concentrations of GP-2250 which are required for the formation of ROS (equal or higher than 500 uM) are most likely due to the short incubation time of 90 minutes in this cellular assay. A higher potency of GP-2250 would be expected at longer incubation times.
(§3) Untreated control (U). Data are presented as mean+/−S.D. Significance levels calculated in comparison to untreated controls (U). * p<0.05, ** p<0.01, *** p<0.001.

[3] = test system: BxPC3 pancreatic cancer cell line; assay: fluorescent ROS detection assay, BxPC3; type: cell-based
Description: as §1, §2, §3

PancTul cell line [4] = assay: ATP luminescent detection kit, PancTul; type: cell-based
Description: (§4) FIG. 3: Decrease of ATP in PancTul cell line: Effect of treatment with the indicated concentrations of GP-2250 on the amount of ATP (dark column) in comparison to the cell viability (light column) after a) 3 h, b) 6 h and c) 24 h incubation at 37° C. The strong decrease of ATP reflects the impairment of the energy metabolism by GP-2250. The decrease of ATP precedes the decrease in cell viability and is therefore not caused by the impairment of cell viability. ATP was measured with a luminescent detection kit (Abcam ab113849), cell viability with the MTT test (Sigma M5655). Data are given as % change versus untreated control (NC), presented as mean+/−S.D. Significance levels in comparison to NC. * p<0.05, ** p<0.01, ***p<0.001.
(§5) The level of ATP in a tumor cell is taken as a measure of the impact of GP-2250 on its energy metabolism. […] The decrease of ATP is already apparent after 3 h with PancTul and at 6 h with the less sensitive BxPC3 at 250 uM. It is this concentration which causes partial inhibition of GAPD (FIG. 1) and thereby links GAPD inhibition to the decrease of ATP, which in itself is a sufficient signal for the induction of apoptosis. […]
(§6) The strong decrease of ATP reflects the impairment of the energy metabolism by GP-2250. […] ATP was measured with a luminescent detection kit (Abcam ab113849), cell viability with the MTT test (Sigma M5655). […]

BxPC3 cell line [5] = assay: ATP luminescent detection kit, BxPC3; type: cell-based
Description: as §4, with “4:” for “3:”, “BxPC3” for “PancTul”
as §5, §6

PancTul cell line [6] = assay: cell viability MTT test, PancTul; type: cell-based
Description: as §4
as §4, with “The” for “FIG. 3: Decrease of ATP in PancTul cell line: Effect of treatment with the indicated concentrations of GP-2250 on the amount of ATP (dark column) in comparison to the cell viability (light column) after a) 3 h, b) 6 h and c) 24 h incubation at 37° C. The”

BxPC3 cell line [7] = assay: cell viability MTT test, BxPC3; type: cell-based
Description: as §4, with “4:” for “3:”, “BxPC3” for “PancTul”
as §4, with “The” for “FIG. 3: Decrease of ATP in PancTul cell line: Effect of treatment with the indicated concentrations of GP-2250 on the amount of ATP (dark column) in comparison to the cell viability (light column) after a) 3 h, b) 6 h and c) 24 h incubation at 37° C. The”

Bax = assay: Western blot of Bax expression in PancTul cells; type: cell-based; settings: 200 μM, 0 h, 6 h, 12 h and 24 h, α-tubulin as control
Description: (§7) FIG. 5: Regulation of oncoproteins Bax and Bcl-2 expression: Effect of treatment with 200 μM GP-2250 for 0 h, 6 h, 12 h and 24 h on the expression of the oncoproteins a) Bax and b) Bcl-2 was tested in PancTul cells by Western blots with α-tubulin as control. The expression of the pro-apoptotic protein Bax was increased whereas the expression of the anti-apoptotic Bcl-2 was decreased over time of incubation with GP-2250.
(§8) Apoptotic pathways are triggered by a decrease of ATP or an increase of ROS. They result in a shift of the equilibrium between the pro-apoptotic (death) protein Bax and the anti-apoptotic (survival) protein Bcl-2. The mitochondria are destabilized and the apoptotic caspase cascade finalizes the apoptotic cell suicide. GP-2250 (200 μM) increased the expression of Bax and decrease the expression of BCl-2 with increasing incubation times as shown in the Western blots (FIG. 5). […] In addition, the concentration of GP-2250 which is sufficient to change the Bax/Bcl-2 ratio (200 uM) corresponds to that for partial GAPDH inhibition (250 uM) (FIG. 1). This finding links GAPDH inhibition to the induction of apoptosis.
(§9) The expression of the pro-apoptotic protein Bax was increased whereas the expression of the anti-apoptotic Bcl-2 was decreased over time of incubation with GP-2250.

Bcl-2 = assay: Western blot of Bcl-2 expression in PancTul cells; type: cell-based; settings: 200 μM, 0 h, 6 h, 12 h and 24 h, α-tubulin as control
Description: as §7, §8, §9

[8] = test system: primary cell line derived from human pancreatic cancer (Bo80); assay: cell viability MTT assay, Bo80 primary pancreatic cancer cells; type: cell-based; settings: 24 h at 37° C.
Description: FIG. 6: Synergy between GP-2250 and Gemcitabine: Cell viability was tested in a primary cell line derived from human pancreatic cancer (Bo80). […] When combined, a striking synergy was observed. The number of viable cells was reduced by 70-75%. Cell viability was tested colorimetically using the MTT assay. […] Reduction of chemotherapy drug-related toxicity can be achieved in vitro using the combinations with GP-2250 while maintaining high efficacy. The combination of GP-2250 with gemcitabine was therefore tested in mouse models of patient-derived xenografts to assess the therapeutic potential of this drug combination in vivo (see FIGS. 12-15; FIG. 18). […] When combined, a striking synergy was observed. The number of viable cells was reduced by 70-75%. Cell viability was tested colorimetically using the MTT assay.

[9] = test system: PancTul pancreatic cancer cell line; assay: test of secondary resistance, PancTul; type: cell-based; settings: 6 weekly treatment cycles, BrdU assay
Source text: FIG. 9: Test of secondary resistance.
Gemcitabine was used as comparator drug.

[10] = test system: Chemotherapy-resistant stem cells from advanced Stage 3 and 4 pancreatic cancer human patients; assay: chemotherapy-resistant stem cells from pancreatic cancer patients; type: cell-based; settings: several concentrations
[11] = test system: AsPC-1 pancreatic cancer cell line
Description: (§10) Following 4 weekly cycles of cytotoxic treatment and regrowth (see text), the cytotoxic potency of GP-2250 (FIG. 8A) and of gemcitabine (FIG. 8B) was tested with the BrdU and MTT assay respectively in the AsPC-1 pancreatic cancer cell line (light columns). Controls corresponded to cells cultured for 4 weeks without drug treatment (dark columns).
(§11) Secondary resistance to 2250 was tested to imitate the repetitive bolus administration of the drug over a period of up to 8 weeks. Gemcitabine was used as comparator drug. A potential secondary resistance was expected to manifest itself in a decreased ability of either drug to impair cell viability. The study was performed with 3 pancreatic tumor cell lines, AsPC-1, PancTul and Bo80, the latter being a primary cell line derived from a pancreatic cancer patient. The cells were treated once a week for 24 hours with 2250 or gemcitabine at a dose which destroyed 80-90% of the cells. Subsequently, the media were exchanged and the cells were allowed to regrow in the absence of drug for 6 days.
(§12) This weekly treatment cycle of cell killing and regrowth was repeated for both drugs for 4 weeks, 6 weeks and 8 weeks. Untreated cultures of 4, 6 and 8 weeks were used as controls. Cell viability was tested with the BrdU assay or the MTT assay at 2 hour, 24 hour, and 6 days in every treatment cycle for 4, 6 and 8 weeks.

[12] = test system: Bo80 pancreatic primary cancer cell line
Description: (§13) Controls corresponded to cells cultured for 8 weeks without drug treatment (dark columns).
as §11, §12

[13] = test system: neuroendocrine cell line QGP-1
Description: (§14) Neuroendocrine tumors were tested in vitro using the neuroendocrine cell line QGP-1 and in vivo using mouse models with a QGP-1 cell xenograft and a Bo99 patient-derived pancreatic cancer tissue graft.

[14] = test system: Bo80 pancreatic primary cancer cell line; assay: test of secondary resistance, Bo80; settings: Bo80, 8 weekly treatment cycles, BrdU assay, vs untreated 8-week cultures
Description: as §13, §11, §12

[15] = test system: neuroendocrine cell line QGP-1; assay: QGP-1 tumor cell viability in vitro
Description: as §14

[16] = test system: AsPC-1 pancreatic cancer cell line; assay: test of secondary resistance, AsPC-1; settings: AsPC-1, 4 weekly treatment cycles, MTT assay, vs untreated 4-week cultures
Description: as §10, §11, §12

GAPDH = GAPDH (Homo sapiens, UniProt P04406); assay: interactions with GAPDH (covalent labeling); type: biochemical
Description: Various oxathiazine-like compounds of the present disclosure are synthesized and are assayed for interactions with GAPDH. Isethionic acid amide and methylene glycol were identified as hydrolytic products. A reactive transient reactive intermediate is isethionic acid hydroxymethylamide. […] The covalently labeled enzyme is purified and reactive intermediates are identified using various analytical methods including mass spectrometry of the labeled peptide is elucidated.

Chain of recombinant GAPDH (rGAPDH) (P04406 whole entry): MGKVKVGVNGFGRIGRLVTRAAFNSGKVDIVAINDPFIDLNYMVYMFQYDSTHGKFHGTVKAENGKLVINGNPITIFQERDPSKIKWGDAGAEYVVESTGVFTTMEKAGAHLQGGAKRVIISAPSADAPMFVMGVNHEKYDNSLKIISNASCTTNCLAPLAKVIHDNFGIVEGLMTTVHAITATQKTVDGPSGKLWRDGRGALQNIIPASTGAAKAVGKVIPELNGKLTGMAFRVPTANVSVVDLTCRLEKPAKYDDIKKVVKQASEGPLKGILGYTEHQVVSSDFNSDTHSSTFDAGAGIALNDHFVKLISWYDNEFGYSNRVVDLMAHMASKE
Chain of GAPDH (P04406 whole entry): as above

inhibition of rGAPDH activity ([1]; 100 uM and 250 uM GP-2250, incubation up to 60 min at 37° C., compared to untreated control, dose- and time-dependent): up to 40% | inhibition of recombinant GAPDH ([1]; cell-free assay): directly inhibited
Structure (SMILES): O=S1(=O)CCOCN1 [GP-2250, Tetrahydro1,4,5-oxathiazin-4-dioxide]
increase of ROS ([2]; 90 min at 37° C.): concentration dependent | concentrations required for the formation of ROS ([2]; incubation time of 90 minutes): ≥ 500 µM | increase of ROS ([3]; BxPC3, 90 min at 37° C.): concentration dependent | concentrations required for the formation of ROS ([3]; BxPC3, incubation time of 90 minutes): ≥ 500 µM | incubation time at which decrease of ATP is apparent (PancTul cell line [4]; 250 uM): 3 h | ATP amount (PancTul cell line [4]; 3 h, 6 h, 24 h at 37° C.): decreases depending on the concentration of GP-2250 and the incubation time | incubation time at which decrease of ATP is apparent (BxPC3 cell line [5]; BxPC3, 250 uM): 6 h | ATP amount (BxPC3 cell line [5]; BxPC3, 3 h, 6 h, 24 h at 37° C.): decreases depending on the concentration of GP-2250 and the incubation time | impairment of cell viability (MTT) relative to ATP decrease (PancTul cell line [6]): required higher concentrations than those required to decrease ATP | impairment of cell viability (MTT) relative to ATP decrease (BxPC3 cell line [7]): required higher concentrations than those required to decrease ATP | expression of Bax (Bax): increased | expression of Bcl-2 (Bcl-2): decreased | cell viability, drug alone ([8]; GP-2250 200 uM): inactive per se | cytotoxic potency after repeated treatment (secondary resistance) [9]: remained unchanged | effect on chemotherapy-resistant stem cells [10]: some effect at higher concentrations | cytotoxic potency after repeated treatment (secondary resistance) [11]: remained unchanged | cytotoxic potency after repeated treatment (secondary resistance) [12]: remained unchanged | cytotoxic effect in QGP-1 cells, monotherapy [13]: concentration-dependent cytotoxic effect

Structure (SMILES): Nc1ccn([C@@H]2O[C@H](CO)[C@@H](O)C2(F)F)c(=O)n1 [gemcitabine]
cell viability, drug alone ([8]; Gemcitabine 100 uM or 1000 uM): inactive per se | effect on chemotherapy-resistant stem cells [10]: minimal effect at all tested concentrations | cytotoxic potency after repeated treatment (secondary resistance) [14]: reduced cytotoxic potency | cytotoxic effect in QGP-1 cells, monotherapy [15]: concentration-dependent cytotoxic effect | cytotoxic potency after repeated treatment (secondary resistance) [16]: reduced cytotoxic potency

interaction with the reactive cysteine-SH in the active center of GAPDH (GAPDH): inactivates the enzyme
Structure (SMILES): O=S(=O)(CCO)NCO [isethionic acid hydroxymethylamide]
